Measured values as given in patent publication US20240108001A1, “Antibacterial Composition” (LG Chem, Ltd., priority 2021, published 2024).

Key:
3T3 = test: Acute oral toxicity dose LD50 by 3T3 Neutral Red Uptake (NRU) assay (OECD Guidance Document No 129); format: cell-based; conditions: LD50 calculated from 3T3 NRU assay (OECD GD 129)
Procedure: The acute oral toxicity dose LD50 was measured by 3T3 Neutral Red Uptake (NRU) assay (OECD Guidance Document No 129). Specifically, LD50 may be calculated by the following method.

[1] = Critical micelle concentration from surface tension at each concentration (Method 5, Du Nouy ring, force tensiometer); format: physicochemical; conditions: aqueous solutions, measurement repeated three times
Procedure: A solution comprising the compound comprising quaternary ammonium structure is prepared, and the surface tension of the solution is measured at each concentration. A calibration curve of the surface tension at each concentration is obtained, and the critical micelle concentration of the compound comprising the quaternary ammonium structure is obtained therefrom.
In this case, the surface tension at each concentration may be measured using a surface tension meter (force tensiometer) and a Du Nouy ring method.
In addition, the solution may use a solvent such as distilled water, but the solvent is not limited thereto.
The critical micelle concentrations of Monomers 2 and 3 and Comparative Monomer 2 were measured by Method 5, and are shown in the following Table 4 and FIGS. 4 to 6. More specifically, aqueous solutions (30 mL) were prepared for each concentration of Monomers 2 and 3 and Comparative Monomer 2, and the surface tension was measured using the Du Nouyring method of a force tensiometer. Each measurement was repeated three times. The surface tension was measured by preparing diluted solutions until the surface tension was similar to deionized water. The critical micelle concentration (CMC) was confirmed by confirming through the change in surface tension with concentration that each aqueous solution formed a micelle.

C=CC(=O)OCC[N+](CCCCCCCCCCCCCC)(CCCCCCCCCCCCCC)CCCCCCCCCCCCCC [Comparative Monomer 2, reference compound]
Acute oral toxicity dose (mg/Kg) LD50 (3T3): 231 mg/kg
Critical micelle concentration (wt %) [1]: 0.06 ± 0.01 wt %

C=CC(=O)OCC[N+](CCCC)(CCCC)CCCCCC [Comparative Monomer 1, reference compound]
Acute oral toxicity dose (mg/Kg) LD50 (3T3): 2,355 mg/Kg

C=CC(=O)OCC[N+](CCCC)(CCCC)CCCCCCCCCC [Monomer 2]
Critical micelle concentration (wt %) [1]: 1.5 ± 0.3 wt %

C=CC(=O)OCC[N+](CCCC)(CCCC)CCCCCCCCCCCC [Monomer 3]
Acute oral toxicity dose (mg/Kg) LD50 (3T3): 843 mg/kg
Critical micelle concentration (wt %) [1]: 0.25 ± 0.05 wt %

C=C(C)C(=O)OCC[N+](CCCC)(CCCCCCCCCC)CCCCCCCCCC [Monomer 8]
Acute oral toxicity dose (mg/Kg) LD50 (3T3): 869 mg/kg

C=C(C)C(=O)OCC[N+](CCCC)(CCCCCCCC)CCCCCCCCCC (centres unmarked) [Monomer 7]
Acute oral toxicity dose (mg/Kg) LD50 (3T3): 998 mg/kg
